In ChEMBL document CHEMBL3286137, “Design, synthesis and structure-activity relationships of novel 4-phenoxyquinoline derivatives containing pyridazinone moiety as potential antitumor agents” (Eur J Med Chem, 2014) one finds IC50 data, which are given here for 33 compounds.

Assay [1] can be described thus: cells. As to conditions: Homo sapiens, MKN-45, 72 h.
The test system of another assay is A549. Description: cells. To be noted: Homo sapiens, A549, 72 h.
Another assay concerns HT-29. In words: cells. As to conditions: Homo sapiens, HT-29, 72 h.
A short description of assay [2]: cells. As to conditions: Homo sapiens, NCI-H460, 72 h.
Assay [3] in a line: Cytotoxicity against human U87MG cells assessed as inhibition of cell growth after 72 hrs by MTT assay. Type of assay: functional, cell-based, U-87MG ATCC. To be noted: U-87 MG. In general terms: Tetrazolium assays rely on reduction of a dye to a coloured formazan, in cell work by metabolically active cells.

As to `COc1cc2c(Oc3ccc(NC(=O)c4nn(-c5ccc(F)c(F)c5)c(=O)cc4C)cc3F)ccnc2cc1OCCCN1CCOCC1`, the IC50 amounted to 90 nM in “cells [1]”, 320 nM with A549, 160 nM in the assay with HT-29 and 390 nM in “cells [2]”.

As to `COc1ccc(-n2nc(C(=O)Nc3ccc(Oc4ccnc5cc(OCCCN6CCC(C)CC6)c(OC)cc45)c(F)c3)c(C)cc2=O)cc1`, the IC50 came out at 400 nM in “cells [1]”; 1100 nM with A549; 5450 nM with HT-29; 2840 nM in assay [3]; 4650 nM in the assay “cells [2]”.

Turning to `COc1cc2c(Oc3ccc(NC(=O)c4nn(-c5ccc(Cl)cc5)c(=O)cc4C)cc3F)ccnc2cc1OCCCN1CCC(C)CC1`, the IC50 in the assay “cells [1]” was determined as 150 nM; in the assay with A549, 210 nM; in the assay with HT-29 it was 180 nM; in assay [3], 1350 nM; in “cells [2]”, 370 nM.

Consider `COc1cc2c(Oc3ccc(NC(=O)c4nn(-c5ccc(Cl)cc5Cl)c(=O)cc4C)cc3F)ccnc2cc1OCCCN1CCC(C)CC1`, for which the IC50 is 120 nM in “cells [1]”, 200 nM in the assay with A549, 170 nM in the assay on HT-29 and 250 nM in “cells [2]”.

Turning to `COc1cc2c(Oc3ccc(NC(=O)c4nn(-c5ccccc5)c(=O)cc4C)cc3F)ccnc2cc1OCCCN1CCN(C)CC1`, the IC50 in the assay “cells [1]” was determined as 130 nM; with A549 it was 350 nM; with HT-29, 270 nM; in assay [3], 2120 nM; in “cells [2]”, 360 nM.

On to `COc1cc2c(Oc3ccc(NC(=O)c4nn(-c5ccccc5C(F)(F)F)c(=O)cc4C)cc3F)ccnc2cc1OCCCN1CCN(C)CC1`, for which the IC50 turned out to be 40 nM in “cells [1]”; 170 nM in the assay with A549; 170 nM with HT-29; 1170 nM in assay [3]; 240 nM in “cells [2]”.

In the case of `COc1cc2c(Oc3ccc(NC(=O)c4nn(-c5ccccc5OC(F)(F)F)c(=O)cc4C)cc3F)ccnc2cc1OCCCN1CCN(C)CC1`, the IC50 in “cells [1]” stood at 100 nM; in the assay with A549, 130 nM; in the assay with HT-29, 180 nM; in assay [3], 1440 nM; in “cells [2]”, 260 nM.

In the case of `COc1cc2c(Oc3ccc(NC(=O)c4nn(-c5cccc(F)c5)c(=O)cc4C)cc3F)ccnc2cc1OCCCN1CCN(C)CC1`, the IC50 was found to be 120 nM in “cells [1]”; 150 nM in the assay on A549; 250 nM in the assay on HT-29; 1590 nM in assay [3]; 260 nM in “cells [2]”.

As to `COc1ccc(-n2nc(C(=O)Nc3ccc(Oc4ccnc5cc(OCCCN6CCN(C)CC6)c(OC)cc45)c(F)c3)c(C)cc2=O)cc1`, the IC50 in the assay “cells [1]” was 1230 nM; with A549, 2200 nM; in the assay with HT-29, 3520 nM; in the assay “cells [2]”, 3660 nM.

In the case of `COc1cc2c(Oc3ccc(NC(=O)c4nn(-c5ccc(Cl)cc5)c(=O)cc4C)cc3F)ccnc2cc1OCCCN1CCN(C)CC1`, the IC50 amounted to 40 nM in “cells [1]”; 270 nM with A549; 320 nM in the assay with HT-29; 1560 nM in assay [3]; 440 nM in the assay “cells [2]”.

Take `COc1cc2c(Oc3ccc(NC(=O)c4nn(-c5ccc(F)c(F)c5)c(=O)cc4C)cc3F)ccnc2cc1OCCCN1CCN(C)CC1`: the IC50 in the assay “cells [1]” turned out to be 120 nM; with A549 it was 130 nM; in the assay on HT-29, 170 nM; in the assay “cells [2]”, 190 nM.

For `COc1cc2c(Oc3ccc(NC(=O)c4nn(-c5ccccc5C)c(=O)cc4C)cc3F)ccnc2cc1OCCCN1CCCC1`, the 50% inhibitory concentration (IC50) in the assay “cells [1]” worked out at 760 nM; in the assay on A549, 1300 nM; in the assay on HT-29, 1400 nM; in assay [3] it was 2960 nM; in “cells [2]”, 1590 nM.

Turning to `COc1cc2c(Oc3ccc(NC(=O)c4nn(-c5ccccc5OC(F)(F)F)c(=O)cc4C)cc3F)ccnc2cc1OCCCN1CCCC1`, the IC50 in “cells [1]” is 60 nM; in the assay on A549, 140 nM; in the assay with HT-29, 180 nM; in assay [3], 1280 nM; in the assay “cells [2]”, 210 nM.

Consider `COc1cc2c(Oc3ccc(NC(=O)c4nn(-c5cccc(F)c5)c(=O)cc4C)cc3F)ccnc2cc1OCCCN1CCCC1`, for which the IC50 turned out to be 120 nM in “cells [1]”; 170 nM with A549; 250 nM in the assay with HT-29; 1700 nM in assay [3]; 280 nM in “cells [2]”.

For the compound `COc1cc2c(Oc3ccc(NC(=O)c4nn(-c5ccc(Cl)cc5)c(=O)cc4C)cc3F)ccnc2cc1OCCCN1CCCC1`, the half-inhibitory concentration (IC50) is 150 nM in “cells [1]”; 230 nM in the assay with A549; 260 nM with HT-29; 1430 nM in assay [3]; 360 nM in the assay “cells [2]”.

In the case of `COc1cc2c(Oc3ccc(NC(=O)c4nn(-c5ccc(F)c(F)c5)c(=O)cc4C)cc3F)ccnc2cc1OCCCN1CCCC1`, the IC50 turned out to be 80 nM in the assay “cells [1]”; 220 nM in the assay with A549; 150 nM in the assay on HT-29; 1400 nM in assay [3]; 170 nM in “cells [2]”.

In the case of `COc1cc2c(Oc3ccc(NC(=O)c4nn(-c5ccccc5)c(=O)cc4C)cc3F)ccnc2cc1OCCCN1CCCCC1`, the IC50 in “cells [1]” was determined as 160 nM; with A549, 150 nM; with HT-29, 160 nM; in assay [3], 1370 nM; in “cells [2]” it was 280 nM.

Turning to `COc1cc2c(Oc3ccc(NC(=O)c4nn(-c5ccccc5C)c(=O)cc4C)cc3F)ccnc2cc1OCCCN1CCCCC1`, the IC50 in “cells [1]” is 1310 nM; with A549 it was 1920 nM; with HT-29, 2810 nM; in assay [3], 2500 nM; in “cells [2]”, 3220 nM.

As for `COc1cc2c(Oc3ccc(NC(=O)c4nn(-c5ccccc5C(F)(F)F)c(=O)cc4C)cc3F)ccnc2cc1OCCCN1CCCCC1`, the IC50 was 90 nM in the assay “cells [1]”; 140 nM with A549; 170 nM in the assay with HT-29; 1150 nM in assay [3]; 210 nM in the assay “cells [2]”.

Turning to `COc1cc2c(Oc3ccc(NC(=O)c4nn(-c5ccccc5OC(F)(F)F)c(=O)cc4C)cc3F)ccnc2cc1OCCCN1CCCCC1`, the IC50 amounted to 40 nM in “cells [1]”; 120 nM in the assay with A549; 190 nM in the assay on HT-29; 1300 nM in assay [3]; 230 nM in “cells [2]”.

`COc1cc2c(Oc3ccc(NC(=O)c4nn(-c5cccc(F)c5)c(=O)cc4C)cc3F)ccnc2cc1OCCCN1CCCCC1`: the IC50 in the assay “cells [1]” turned out to be 130 nM; in the assay with A549, 250 nM; in the assay with HT-29 it was 290 nM; in assay [3], 1500 nM; in “cells [2]”, 360 nM.

For the compound `COc1ccc(-n2nc(C(=O)Nc3ccc(Oc4ccnc5cc(OCCCN6CCCCC6)c(OC)cc45)c(F)c3)c(C)cc2=O)cc1`, the half-inhibitory concentration (IC50) in “cells [1]” amounted to 330 nM; in the assay on A549, 1500 nM; in the assay with HT-29, 3200 nM; in assay [3] it was 1800 nM; in “cells [2]” it was 3730 nM.

Regarding `COc1cc2c(Oc3ccc(NC(=O)c4nn(-c5ccc(Cl)cc5)c(=O)cc4C)cc3F)ccnc2cc1OCCCN1CCCCC1`, the IC50 in “cells [1]” stood at 230 nM; in the assay with A549, 320 nM; in the assay on HT-29, 360 nM; in assay [3], 1400 nM; in “cells [2]”, 460 nM.

For the compound `COc1cc2c(Oc3ccc(NC(=O)c4nn(-c5ccc(Cl)cc5Cl)c(=O)cc4C)cc3F)ccnc2cc1OCCCN1CCCCC1`, the IC50 in “cells [1]” was 80 nM; with A549 it was 220 nM; in the assay on HT-29 it was 290 nM; in assay [3], 1800 nM; in “cells [2]” it was 390 nM.

With `COc1cc2c(Oc3ccc(NC(=O)c4nn(-c5ccccc5C)c(=O)cc4C)cc3F)ccnc2cc1OCCCN1CCC(C)CC1`, the half-maximal inhibitory concentration (IC50) was 1290 nM in the assay “cells [1]”; 1460 nM in the assay with A549; 2810 nM in the assay with HT-29; 2240 nM in assay [3]; 2260 nM in the assay “cells [2]”.

For the compound `COc1cc2c(Oc3ccc(NC(=O)c4nn(-c5ccccc5C(F)(F)F)c(=O)cc4C)cc3F)ccnc2cc1OCCCN1CCC(C)CC1`, the IC50 is 60 nM in “cells [1]”; 160 nM in the assay on A549; 180 nM in the assay on HT-29; 1120 nM in assay [3]; 200 nM in “cells [2]”.

As to `COc1cc2c(Oc3ccc(NC(=O)c4nn(-c5cccc(F)c5)c(=O)cc4C)cc3F)ccnc2cc1OCCCN1CCC(C)CC1`, the IC50 in the assay “cells [1]” came to 140 nM; in the assay on A549, 250 nM; with HT-29, 300 nM; in assay [3], 1800 nM; in the assay “cells [2]”, 250 nM.

On to `COc1cc2c(Oc3ccc(NC(=O)c4nn(-c5ccccc5)c(=O)cc4C)cc3F)ccnc2cc1OCCCN1CCOCC1`, for which the IC50 in the assay “cells [1]” turned out to be 110 nM; with A549 it was 720 nM; with HT-29 it was 350 nM; in assay [3], 1600 nM; in the assay “cells [2]”, 450 nM.

Regarding `COc1cc2c(Oc3ccc(NC(=O)c4nn(-c5ccccc5C)c(=O)cc4C)cc3F)ccnc2cc1OCCCN1CCOCC1`, the IC50 in “cells [1]” was determined as 270 nM; with A549, 530 nM; in the assay with HT-29 it was 1010 nM; in assay [3], 2000 nM; in the assay “cells [2]” it was 1380 nM.

With `COc1cc2c(Oc3ccc(NC(=O)c4nn(-c5ccccc5OC(F)(F)F)c(=O)cc4C)cc3F)ccnc2cc1OCCCN1CCOCC1`, the IC50 in the assay “cells [1]” was 90 nM; in the assay on A549, 120 nM; with HT-29 it was 170 nM; in assay [3], 1300 nM; in the assay “cells [2]” it was 200 nM.

As to `COc1cc2c(Oc3ccc(NC(=O)c4nn(-c5cccc(F)c5)c(=O)cc4C)cc3F)ccnc2cc1OCCCN1CCOCC1`, the IC50 in the assay “cells [1]” was 110 nM; with A549, 550 nM; with HT-29, 270 nM; in assay [3], 1980 nM; in “cells [2]” it was 290 nM.

As for `COc1ccc(-n2nc(C(=O)Nc3ccc(Oc4ccnc5cc(OCCCN6CCOCC6)c(OC)cc45)c(F)c3)c(C)cc2=O)cc1`, the concentration for half-maximal inhibition (IC50) was 260 nM in the assay “cells [1]”, 1500 nM in the assay on A549, 1230 nM with HT-29 and 1770 nM in “cells [2]”.

As to `COc1cc2c(Oc3ccc(NC(=O)c4nn(-c5ccc(Cl)cc5)c(=O)cc4C)cc3F)ccnc2cc1OCCCN1CCOCC1`, the IC50 in the assay “cells [1]” worked out at 70 nM; in the assay with A549 it was 330 nM; with HT-29, 260 nM; in assay [3], 1970 nM; in “cells [2]” it was 380 nM.

For orientation: IC50 means the concentration that gives 50% inhibition.
